{"source": "BigSolDB 2.1"}
{"smiles": "O=c1c2ccccc2nc2n1CCc1c-2[nH]c2ccccc12", "values": [{"measurement": "solubility (mole fraction)", "setting": "in acetone, 283.15 K", "result": 0.00069}, {"measurement": "solubility (mole fraction)", "setting": "in acetone, 288.15 K", "result": 0.00079}, {"measurement": "solubility (mole fraction)", "setting": "in acetone, 293.15 K", "result": 0.000929}, {"measurement": "solubility (mole fraction)", "setting": "in acetone, 298.15 K", "result": 0.00106}, {"measurement": "solubility (mole fraction)", "setting": "in acetone, 303.15 K", "result": 0.00122}, {"measurement": "solubility (mole fraction)", "setting": "in acetone, 308.15 K", "result": 0.00139}, {"measurement": "solubility (mole fraction)", "setting": "in acetone, 313.15 K", "result": 0.00158}, {"measurement": "solubility (mole fraction)", "setting": "in acetone, 318.15 K", "result": 0.0018}, {"measurement": "solubility (mole fraction)", "setting": "in acetone, 323.15 K", "result": 0.00205}, {"measurement": "solubility (mole fraction)", "setting": "in ethanol, 283.15 K", "result": 0.000132}, {"measurement": "solubility (mole fraction)", "setting": "in ethanol, 288.15 K", "result": 0.00016}, {"measurement": "solubility (mole fraction)", "setting": "in ethanol, 293.15 K", "result": 0.000191}, {"measurement": "solubility (mole fraction)", "setting": "in ethanol, 298.15 K", "result": 0.000229}, {"measurement": "solubility (mole fraction)", "setting": "in ethanol, 303.15 K", "result": 0.000271}, {"measurement": "solubility (mole fraction)", "setting": "in ethanol, 308.15 K", "result": 0.00032}, {"measurement": "solubility (mole fraction)", "setting": "in ethanol, 313.15 K", "result": 0.000375}, {"measurement": "solubility (mole fraction)", "setting": "in ethanol, 318.15 K", "result": 0.00044}, {"measurement": "solubility (mole fraction)", "setting": "in ethanol, 323.15 K", "result": 0.000509}, {"measurement": "solubility (mole fraction)", "setting": "in isopropanol, 283.15 K", "result": "7.46e-05"}, {"measurement": "solubility (mole fraction)", "setting": "in isopropanol, 288.15 K", "result": "9.8e-05"}, {"measurement": "solubility (mole fraction)", "setting": "in isopropanol, 293.15 K", "result": 0.000124}, {"measurement": "solubility (mole fraction)", "setting": "in isopropanol, 298.15 K", "result": 0.00016}, {"measurement": "solubility (mole fraction)", "setting": "in isopropanol, 303.15 K", "result": 0.000201}, {"measurement": "solubility (mole fraction)", "setting": "in isopropanol, 308.15 K", "result": 0.000257}, {"measurement": "solubility (mole fraction)", "setting": "in isopropanol, 313.15 K", "result": 0.000318}, {"measurement": "solubility (mole fraction)", "setting": "in isopropanol, 318.15 K", "result": 0.000396}, {"measurement": "solubility (mole fraction)", "setting": "in isopropanol, 323.15 K", "result": 0.000488}, {"measurement": "solubility (mole fraction)", "setting": "in methanol, 283.15 K", "result": "6.1e-05"}, {"measurement": "solubility (mole fraction)", "setting": "in methanol, 288.15 K", "result": "7.33e-05"}, {"measurement": "solubility (mole fraction)", "setting": "in methanol, 293.15 K", "result": "8.79e-05"}, {"measurement": "solubility (mole fraction)", "setting": "in methanol, 298.15 K", "result": 0.000105}, {"measurement": "solubility (mole fraction)", "setting": "in methanol, 303.15 K", "result": 0.000125}, {"measurement": "solubility (mole fraction)", "setting": "in methanol, 308.15 K", "result": 0.000148}, {"measurement": "solubility (mole fraction)", "setting": "in methanol, 313.15 K", "result": 0.000172}, {"measurement": "solubility (mole fraction)", "setting": "in methanol, 318.15 K", "result": 0.000201}, {"measurement": "solubility (mole fraction)", "setting": "in methanol, 323.15 K", "result": 0.000234}, {"measurement": "solubility (mole fraction)", "setting": "in water, 283.15 K", "result": "1.45e-09"}, {"measurement": "solubility (mole fraction)", "setting": "in water, 288.15 K", "result": "2.02e-09"}, {"measurement": "solubility (mole fraction)", "setting": "in water, 293.15 K", "result": "2.84e-09"}, {"measurement": "solubility (mole fraction)", "setting": "in water, 298.15 K", "result": "3.97e-09"}, {"measurement": "solubility (mole fraction)", "setting": "in water, 303.15 K", "result": "5.49e-09"}, {"measurement": "solubility (mole fraction)", "setting": "in water, 308.15 K", "result": "7.6e-09"}, {"measurement": "solubility (mole fraction)", "setting": "in water, 313.15 K", "result": "1.04e-08"}, {"measurement": "solubility (mole fraction)", "setting": "in water, 318.15 K", "result": "1.38e-08"}, {"measurement": "solubility (mole fraction)", "setting": "in water, 323.15 K", "result": "1.85e-08"}]}
